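Dose response: 5 concentrations. Exposure: 48 h. Format: 96-well plates. Endpoint: linear interpolation; highest concentration if not reached. The concentration for full growth arrest is given as TGI.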

We go through seven compounds from PubChem BioAssay (NCI).

Some test systems named below: OVCAR-5 ovarian; A498 renal; U251 CNS; HCT-116 colon; SN12C renal; 786-0 renal; NCI-H522 lung; HT29 colon; CCRF-CEM leukemia; HOP-62 NSCLC; SK-MEL-2 melanoma; SF-268 CNS; DU-145 prostate; UACC-257 melanoma; BT-549 breast; COLO 205 colon; M14 melanoma; MALME-3M melanoma; RPMI-8226 leukemia; SR leukemia.
Assay in all cases: growth of human tumour cells (NCI), 48 h

Regarding `Cc1ccc(N=Nc2c(C)nn(C(=O)CC(=O)Nc3ccc(Cl)cc3)c2C)cc1C`, the TGI in the test on OVCAR-5 ovarian, in the test with A498 renal, in the test with U251 CNS, with HCT-116 colon, in the test on SN12C renal and with 786-0 renal was above 100 µM throughout. Besides, the TGI in the test on NCI-H522 lung is above 100 µM; in the test on HT29 colon, above 100 µM; in the test with CCRF-CEM leukemia it was 71 µM; with HOP-62 NSCLC it was above 100 µM; in the test on SK-MEL-2 melanoma, above 100 µM; in the test with SF-268 CNS it was above 100 µM. Further, the TGI in the test on DU-145 prostate, with UACC-257 melanoma, in the test with BT-549 breast, in the test with COLO 205 colon, in the test on M14 melanoma and with MALME-3M melanoma was above 100 µM throughout. Besides, the TGI with RPMI-8226 leukemia is above 100 µM; in the test with SR leukemia, 39.7 µM.

Take `CSc1n[nH]c2n[nH]c(C)c12`: the TGI with OVCAR-5 ovarian, in the test on A498 renal, in the test on U251 CNS, in the test on HCT-116 colon, with SN12C renal and in the test on 786-0 renal was above 100 µM each time. Also, the TGI with NCI-H522 lung, in the test with HT29 colon, in the test with CCRF-CEM leukemia, with HOP-62 NSCLC, in the test on SK-MEL-2 melanoma and in the test on SF-268 CNS was above 100 µM each time. Besides, the TGI with DU-145 prostate, with UACC-257 melanoma, with BT-549 breast, in the test on COLO 205 colon, in the test on M14 melanoma and in the test with MALME-3M melanoma was above 100 µM each time. The TGI with RPMI-8226 leukemia and in the test with SR leukemia was above 100 µM each time.

With `O=C(Oc1ccc(OC(Oc2ccccc2)c2ccccc2)cc1)c1ccccc1` (stereo not given), the TGI in the test with OVCAR-5 ovarian is above 100 µM; in the test on A498 renal it was 23.8 µM; in the test with U251 CNS it was above 100 µM; with HCT-116 colon, 29.2 µM; in the test on SN12C renal, above 31.6 µM; with 786-0 renal it was above 31.6 µM. Further, the TGI in the test with NCI-H522 lung is above 100 µM; in the test on HT29 colon, above 31.6 µM; with CCRF-CEM leukemia, above 31.6 µM; in the test on HOP-62 NSCLC, 19 µM; with SK-MEL-2 melanoma, 36.6 µM; with SF-268 CNS, 23 µM. The TGI with DU-145 prostate was above 31.6 µM; in the test with UACC-257 melanoma, above 31.6 µM; in the test with BT-549 breast, above 31.6 µM; in the test on COLO 205 colon, above 31.6 µM; with M14 melanoma it was above 31.6 µM; in the test on MALME-3M melanoma, 18.8 µM. Moreover, the TGI in the test on RPMI-8226 leukemia was 24.1 µM; in the test on SR leukemia, above 31.6 µM.

Consider `CC(=O)OC(C#N)CC(C)(C)/[N+]([O-])=[N+](\[O-])C(C)(C)CC(C#N)OC(C)=O` (stereo not given), for which the TGI with OVCAR-5 ovarian was 95.4 µM; in the test with A498 renal, above 100 µM; with U251 CNS, 39.5 µM; in the test on HCT-116 colon, 20.9 µM; in the test with SN12C renal, 35.7 µM; in the test on 786-0 renal, 24.7 µM. Moreover, the TGI in the test on NCI-H522 lung was 23.9 µM; in the test on HT29 colon it was 65.8 µM; in the test on CCRF-CEM leukemia, above 100 µM; in the test on HOP-62 NSCLC, 36.2 µM; in the test with SK-MEL-2 melanoma, above 100 µM; in the test with SF-268 CNS, 42.2 µM. The TGI with DU-145 prostate is 43.8 µM; in the test on UACC-257 melanoma, 37.8 µM; in the test with BT-549 breast it was 36.6 µM; with COLO 205 colon it was 32 µM; in the test with M14 melanoma it was 32.2 µM; in the test on MALME-3M melanoma, 47.4 µM. Besides, the TGI in the test on RPMI-8226 leukemia is 40.2 µM; with SR leukemia, 48.3 µM.

Take `Cc1ccc(C(=O)c2[nH]c(Nc3ccc(Cl)cc3)c(C(=S)Nc3ccccc3)c2N)cc1`: the TGI in the test with OVCAR-5 ovarian was 40.9 µM; in the test on A498 renal, 27.9 µM; in the test with U251 CNS, 9.02 µM; in the test on HCT-116 colon it was 11 µM; in the test on SN12C renal it was 27.4 µM; in the test on 786-0 renal, 6.4 µM. Moreover, the TGI with NCI-H522 lung was 23.6 µM; in the test on HT29 colon, 16.8 µM; with CCRF-CEM leukemia, above 100 µM; in the test on HOP-62 NSCLC it was 15.3 µM; in the test with SK-MEL-2 melanoma, 31.7 µM; in the test on SF-268 CNS, 23.3 µM. For the same compound, the TGI with DU-145 prostate is 24.8 µM; in the test with UACC-257 melanoma, 43.7 µM; in the test on BT-549 breast, 20.5 µM; in the test on COLO 205 colon, 2.84 µM; in the test with M14 melanoma, 35.8 µM; in the test on MALME-3M melanoma, 19.8 µM. The TGI worked out at 18 µM in the test on RPMI-8226 leukemia and 10.7 µM in the test on SR leukemia.

In the case of `CC(=O)O[C@H]1CC[C@@]2(C)C(=CC[C@H]3[C@@H]4C/C(=C\c5ccncc5)[C@H](OC(C)=O)[C@@]4(C)CC[C@@H]32)C1`, the TGI worked out at 36.6 µM with OVCAR-5 ovarian; 26.7 µM in the test on A498 renal; 23.1 µM in the test on U251 CNS; 24.1 µM in the test on HCT-116 colon; 33 µM in the test with SN12C renal; 23.3 µM with 786-0 renal. Besides, the TGI was 18.5 µM in the test with NCI-H522 lung; 20.3 µM in the test on HT29 colon; 11.2 µM in the test with CCRF-CEM leukemia; 17.7 µM in the test with HOP-62 NSCLC; 33.3 µM in the test on SK-MEL-2 melanoma; 25.8 µM in the test with SF-268 CNS. Further, the TGI in the test with DU-145 prostate is 29.4 µM; with UACC-257 melanoma, 33.3 µM; in the test on BT-549 breast, 10.9 µM; in the test on COLO 205 colon, 18.2 µM; with M14 melanoma it was 30.2 µM; in the test with MALME-3M melanoma, 21.7 µM. In addition, the TGI is 7.6 µM in the test with RPMI-8226 leukemia and 9.19 µM in the test with SR leukemia.

`CCCCCCCCCCCCCCC[C@@H](O)C[N+](C)(C)CCO`: the TGI is 11.4 µM in the test with OVCAR-5 ovarian; above 100 µM in the test with A498 renal; 2.59 µM with U251 CNS; above 62.1 µM with HCT-116 colon; 50.8 µM with SN12C renal; 3.07 µM in the test on 786-0 renal. The TGI was 4.35 µM in the test with NCI-H522 lung; 4.62 µM in the test on HT29 colon; 11.5 µM with CCRF-CEM leukemia; above 100 µM with HOP-62 NSCLC; 44.3 µM with SK-MEL-2 melanoma; 6.66 µM with SF-268 CNS. The TGI stood at 48.2 µM with DU-145 prostate; 49.2 µM in the test on UACC-257 melanoma; 3.63 µM in the test on BT-549 breast; 14.6 µM in the test on COLO 205 colon; 41.1 µM in the test on M14 melanoma; 15.4 µM in the test on MALME-3M melanoma. Besides, the TGI with RPMI-8226 leukemia is above 100 µM; in the test with SR leukemia it was above 23.6 µM.
